Test results published in patent US5696143A, “Benz [G] indazolyl derivatives for the treatment of inflammation” (priority 1994, dated 1997).

How the values were obtained:
[1] = test system: rat paw edema (carrageenan); assay: Rat Carrageenan Foot Pad Edema Test; assay type: in vivo, Male Sprague-Dawley rats; details: @ 30 mg/kg body weight, oral, 1 h before carrageenan; foot volume 3 h after injection; % decrease from control paw volume
Procedure: Rat Carrageenan Foot Pad Edema Test
The carrageenan foot edema test was performed with materials, reagents and procedures essentially as described by Winter, et al., (Proc. Soc. Exp. Biol. Med., 111, 544 (1962)). Male Sprague-Dawley rats were selected in each group so that the average body weight was as close as possible. Rats were fasted with free access to water for over sixteen hours prior to the test. The rats were dosed orally (1 mL) with compounds suspended in vehicle containing 0.5% methylcellulose and 0.025% surfactant, or with vehicle alone. One hour later a subplantar injection of 0.1 mL of 1% solution of carrageenan/sterile 0.9% saline was administered and the volume of the injected foot was measured with a displacement plethysmometer connected to a pressure transducer with a digital indicator. Three hours after the injection of the carrageenan, the volume of the foot was again measured. The average foot swelling in a group of drug-treated animals was compared with that of a group of placebo-treated animals and the percentage inhibition of edema was determined (Otterhess and Bliven, Laboratory Models for Testing NSAIDs, in Non-steroidal Anti-Inflammatory Drugs, (J. Lombardino, ed. 1985)).

Human COX II = target: T1, Human COX II (Homo sapiens, UniProt P35354); assay: COX II activity in vitro (PGE2 formed, ELISA; recombinant enzyme, baculovirus/SF9 insect cell membranes); assay type: biochemical; details: arachidonic acid 10 μM; 10-20 min pre-incubation; pH 8.0; read-out: Human COX II ID50
T1 construct: A 2.0 kb fragment containing the coding region of either human or murine COX-I or human or murine COX-II; made in house; host or cells: SF9 insect cells (recombinant baculovirus, transfer vector pVL1393)
T1 sequence (P35354 18-604): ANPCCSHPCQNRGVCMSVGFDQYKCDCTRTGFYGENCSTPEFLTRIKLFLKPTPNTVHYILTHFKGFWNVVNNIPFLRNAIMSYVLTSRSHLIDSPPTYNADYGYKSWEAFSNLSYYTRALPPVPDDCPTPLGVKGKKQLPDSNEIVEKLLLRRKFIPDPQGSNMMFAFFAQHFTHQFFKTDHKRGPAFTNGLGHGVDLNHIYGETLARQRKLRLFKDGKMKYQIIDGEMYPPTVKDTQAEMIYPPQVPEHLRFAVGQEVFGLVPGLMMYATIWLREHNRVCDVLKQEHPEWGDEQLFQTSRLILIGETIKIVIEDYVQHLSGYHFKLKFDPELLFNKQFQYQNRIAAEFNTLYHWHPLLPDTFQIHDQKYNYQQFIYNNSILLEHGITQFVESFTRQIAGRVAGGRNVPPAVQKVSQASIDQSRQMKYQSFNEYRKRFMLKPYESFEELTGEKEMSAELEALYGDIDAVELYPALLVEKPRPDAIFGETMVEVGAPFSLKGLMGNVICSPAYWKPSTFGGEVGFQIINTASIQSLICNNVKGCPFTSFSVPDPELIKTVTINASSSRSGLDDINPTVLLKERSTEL
Procedure: (§1) Evaluation of COX I and COX II activity in vitro
(§2) The COX II inhibition activity of the compounds of this invention illustrated in the Examples was determined by the following methods.
(§3) a. Preparation of recombinant CQX baculoviruses
(§4) A 2.0 kb fragment containing the coding region of either human or murine COX-I or human or murine COX-II was cloned into a BamH1 site of the baculovirus transfer vector pVL1393 (Invitrogen) to generate the baculovirus transfer vectors for COX-I and COX-II in a manner similar to the method of D. R. O'Reilly et al (Baculovirus Expression Vectors: A Laboratory Manual (1992)). Recombinant baculoviruses were isolated by transfecting 4 μg of baculovirus transfer vector DNA into SF9 insect cells ([…]) along with 200 ng of linearized baculovirus plasmid DNA by the calcium phosphate method. See M. D. Summers and G. E. Smith, A Manual of Methods for Baculovirus Vectors and Insect Cell Culture Procedures, Texas Agric. Exp. Station Bull. 1555 (1987). Recombinant viruses were purified by three rounds of plaque purification and high titer (10E7-10E8 pfu/ml) stocks of virus were prepared. For large scale production, SF9 insect cells were infected in 10 liter fermentors (0.5×10^6 /ml) with the recombinant baculovirus stock such that the multiplicity of infection was 0.1. After 72 hours the cells were centrifuged and the cell pellet homogenized in Tris/Sucrose (50 mM: 25%, pH 8.0) containing 1% 3-[(3-cholamidopropyl)dimethylammonio]-1-propanesulfonate (CHAPS). The homogenate was centrifuged at 10,000×G for 30 minutes, and the resultant supernatant was stored at -80° C. before being assayed for COX activity.
(§5) b. Assay for COX I and COX II activity:
(§6) COX activity was assayed as PGE2 formed/μg protein/time using an ELISA to detect the prostaglandin released. CHAPS-solubilized insect cell membranes containing the appropriate COX enzyme were incubated in a potassium phosphate buffer (50 mM, pH 8.0) containing epinephrine, phenol, and heme with the addition of arachidonic acid (10 μM). Compounds were pre-incubated with the enzyme for 10-20 minutes prior to the addition of arachidonic acid. Any reaction between the arachidonic acid and the enzyme was stopped after ten minutes at 37° C./room temperature by transferring 40 μl of reaction mix into 160 μl ELISA buffer and 25 μM indomethacin. The PGE2 formed was measured by standard ELISA technology (Cayman Chemical).

Human COX I = target: T2, Human COX I (Homo sapiens, UniProt P23219); assay: COX I activity in vitro (PGE2 formed, ELISA; recombinant enzyme, baculovirus/SF9 insect cell membranes); assay type: biochemical; details: arachidonic acid 10 μM; 10-20 min pre-incubation; pH 8.0; read-out: Human COX I ID50
T2 construct: A 2.0 kb fragment containing the coding region of either human or murine COX-I or human or murine COX-II; made in house; host or cells: SF9 insect cells (recombinant baculovirus, transfer vector pVL1393)
T2 sequence (P23219 24-599): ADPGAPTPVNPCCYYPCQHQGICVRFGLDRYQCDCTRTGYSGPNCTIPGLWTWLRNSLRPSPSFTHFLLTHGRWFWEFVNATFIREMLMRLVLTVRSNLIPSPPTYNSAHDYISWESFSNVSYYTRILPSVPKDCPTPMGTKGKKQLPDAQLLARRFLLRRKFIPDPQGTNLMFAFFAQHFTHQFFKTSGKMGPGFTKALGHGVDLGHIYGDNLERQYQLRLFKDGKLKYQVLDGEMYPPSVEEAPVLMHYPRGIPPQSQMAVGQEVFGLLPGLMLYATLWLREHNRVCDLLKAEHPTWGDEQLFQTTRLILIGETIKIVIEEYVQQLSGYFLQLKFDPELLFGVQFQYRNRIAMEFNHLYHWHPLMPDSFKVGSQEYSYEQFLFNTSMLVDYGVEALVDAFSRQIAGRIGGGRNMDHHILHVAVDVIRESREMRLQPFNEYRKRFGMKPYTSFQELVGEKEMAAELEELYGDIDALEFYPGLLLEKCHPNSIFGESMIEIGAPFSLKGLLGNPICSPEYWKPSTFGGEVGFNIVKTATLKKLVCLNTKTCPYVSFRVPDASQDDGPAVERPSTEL
Procedure: as §1, §2, §3, §4, §5, §6

Compound | IC50 (Human COX II) [µM] | IC50 (Human COX I) [µM] | % Inhibition (rat paw edema) [1] [%]
COc1ccc2c(ccc3c(C(F)F)nn(-c4ccc(S(N)(=O)=O)cc4)c32)c1Cl [Example 1, 4-[6-Chloro-3-(difluoromethyl)-7-methoxy-1H-benz[g]indazol-1-yl]benzenesulfonamide] | 1 | > 100 | 29
COc1ccc2c(ccc3c(C(F)(F)F)nn(-c4ccc(S(N)(=O)=O)cc4)c32)c1 [Example 3, 4-[7-Methoxy-3-(trifluoromethyl)-1H-benz[g]indazol-1-yl]benzenesulfonamide] | < 0.1 | > 100 | 
COc1ccc2c(ccc3cnn(-c4ccc(S(N)(=O)=O)cc4)c32)c1 [Example 4, 4-[7-Methoxy-1H-benz[g]indazol-1-yl]benzenesulfonamide] | > 100 | > 100 | 

Continued, in another order:

IC50 (Human COX II) [µM] | IC50 (Human COX I) [µM] | Compound | % Inhibition (rat paw edema) [1] [%]
< 0.1 | 0.8 | COc1ccc2c(ccc3c(C(F)F)nn(-c4ccc(S(N)(=O)=O)cc4)c32)c1 [Example 2, 4-[3-(difluoromethyl)-7-methoxy-1H-benz[g]indazol-1-yl]benzenesulfonamide] | 24
> 100 | > 100 | NS(=O)(=O)c1ccc(-n2nc(C(F)(F)F)c3ccc4ccccc4c32)cc1 [Example 5, 4-[3-(Trifluoromethyl)-1H-benz[g]indazol-1-yl]benzenesulfonamide] | 
